Test [1] relates to western corn root worm larvae. Nature of the test: Glass bead Y-tube choice test, corn volatiles versus CO2 (Example 19). Also on record: species or system Diabrotica virgifera virgifera LeConte. The conditions noted are these: in vivo. The method, then:
Bioassay Procedure. All bioassays were choice tests conducted using a vertical glass “Y” tube apparatus filled with 3-mm glass beads (Bernklau and Bjostad 1998) (FIG. 62). Volatile compounds were prepared in 35-ml polyethylene syringes (cat no. 106-0490, Sherwood Medical, St. Louis, Mo.) and a syringe pump (Sage Model 355, Fisher Scientific, Pittsburgh, Pa.) was used to provide, slow (1 ml per min) consistent delivery of the compounds into each choice arm of the bioassay apparatus. Twenty newly-hatched larvae (less than 12-hours-old) were used for each bioassay. Non-diapausing larvae were used for all experiments unless otherwise indicated below. For each choice test a minimum of 10 replicates were conducted.
Corn Headspace Versus CO2. Using the glass bead bioassay (Bernklau and Bjostad 1998) the headspace over germinating corn seeds was tested in a choice test against a series of CO2 concentrations to determine if corn volatiles (including CO2) were more attractive to the larvae than CO2 alone. A 35-ml syringe was filled with the headspace over 3-day-old germinating corn seedlings by means of a 25-cm length of slender Teflon tubing inserted into a hole drilled into the cover of the tub containing the corn seedlings.
Three different concentrations of CO2 were tested on the control side of the choice test. In the 1 st test, we used ambient room air on the control side, which contains a lower concentration of CO2 than the corn headspace (approximately 1.0 mmol/mol). In the 2nd test, we used GC-MS-SIM to match the CO2 concentration in the syringe on the control side to be equal to that measured in the syringe containing corn headspace. In the 3rd test, the syringe on the control side of the choice test contained a CO2 concentration twice that measured in the corn headspace. To prepare each of these control concentrations, a 2nd 35-ml polyethylene syringe was partially filled (approximately 5 ml) from a tank containing pure (100%) CO2 using a glass syringe. Headspace from a plastic tub containing only moist germination paper was drawn into the syringe to fill it, mixing the air and CO2 thoroughly at the same time. The gas mixtures in the polyethylene syringes were allowed to equilibrate for 15 minutes, and GC-MS-SIM was used to verify the CO2 concentrations in both syringes prior to each bioassay.
Corn Headspace Versus CO2 with Diapausing Larvae. The larvae used in our studies were from a colony of nondiapausing western corn root worm that has been maintained in our laboratory since 1986. We wished to determine if diapausing western corn root worm larvae would respond differently to corn volatiles than the colony larvae. Using the same method described above, the headspace over germinating corn seeds was tested in a choice test against a series of CO2 concentrations with western corn root worm larvae from a diapausing strain.
Corn Headspace-Coated Glass Beads versus CO2. In the previous experiments, corn volatiles were introduced into the bottom of the Y-tube and carried through the glass beads by the airstream from the syringe pump. We also tested the possibility that some volatile compounds may have been removed from the airstream by coating out on the glass beads on the bottom of the Y-tube where they would not be available for the larvae to detect at the choice point near the middle of the Y-tube. […]

Test [2] relates to corn root worm neonate larvae. Nature of the test: Repellence test, larvae staying on paper (FIG. 78). The test is classed as in vivo. The conditions noted are these: in the presence of a feeding stimulus.
Test [3] deals with neonate Western Corn root worm larvae. Nature of the test: Larval bioassay in soil tubs with granules. The arrangement: species or system Diabrotica species. The conditions noted are these: in vivo. The method, then: The bioassay comprises a laboratory test conducted in tubs (30×15×8 cm) filled with 3000 grams of soil. A single corn seed is placed 2 cm from one end of the tub. After the corn plant is 4 days old, 30 neonate Western Corn root worm larvae are introduced into the soil in the end of the tub opposite the corn seedings. Larvae are given 24 hours to attempt to locate and attack the corn plant. Larvae are recovered from the corn plant. For granule tests, a measured amount (0.25 gram of prepared granule is mixed into 1.0 kg. of soil (20% moisture). This soil is used to fill the center ⅓ of the bioassay tub.

The subject of test [4] is Diabrotica larvae. The conditions noted are these: Jewett and Bjostad (1996); cited from earlier work.

Consider `COc1ccc2[nH]c(=O)oc2c1` [MBOA, 6-methoxy-2-benzoxazolinone], for which the “role in attraction of larvae to corn roots (conclusion)” value (“role in attraction of larvae” for short) in test [1] is reported as “not involved in attraction of western corn root worm larvae”. `CN1COCN(Cc2cnc(Cl)s2)/C1=N\[N+](=O)[O-]` [Thiamethoxam]: the “repellence to neonate larvae” value in test [2] is “does not repel corn root worm neonate larvae”. Further, the “effect on control of larvae provided by attractant granules” value in test [3] is listed as “greatly improved”. As to `ClCCl` [dichloromethane], the attractiveness to larvae result in test [4] is “attractive to Diabrotica larvae”. Regarding `CCCCC/C=C\C/C=C\CCCCCCCC(=O)O` [linoleic acid], in test [1], the “role in attraction of larvae” value is on record as “not involved in attraction of western corn root worm larvae”. Take `CCCCCCCC/C=C\CCCCCCCC(=O)O` [oleic acid]: the “role in attraction of larvae” value in test [1] is recorded as “not involved in attraction of western corn root worm larvae”. The same measure, in the same setting: the value for `CCCCCCCCCCCCCCCCCC(=O)O` [stearic acid] was “not involved in attraction of western corn root worm larvae”.

Values taken from patent US20050063956A1, “Method and device for attracting insects” (Colorado State University Research Foundation, priority 1998, published 2005).
